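Where inhibition never reached the appropriate level, the endpoint shown equals the highest concentration tested. Otherwise, values were interpolated linearly from a five-concentration, 48-hour dose response in 96-well plates. At the TGI there is no net growth.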
Experiments:
Test in all cases: growth of human tumour cells (NCI), 48 h
SR leukemia = test system: SR leukemia
LOX IMVI melanoma = test system: LOX IMVI melanoma
M14 melanoma = test system: M14 melanoma
K-562 leukemia = test system: K-562 leukemia
NCI-H522 lung = test system: NCI-H522 lung
EKVX NSCLC = test system: EKVX NSCLC
HCT-116 colon = test system: HCT-116 colon
MDA-MB-435 = test system: MDA-MB-435
U251 CNS = test system: U251 CNS
HOP-92 NSCLC = test system: HOP-92 NSCLC
KM12 colon = test system: KM12 colon
ACHN renal = test system: ACHN renal
RPMI-8226 leukemia = test system: RPMI-8226 leukemia
SNB-19 CNS = test system: SNB-19 CNS
OVCAR-4 ovarian = test system: OVCAR-4 ovarian

Row | Compound | TGI (SR leukemia) [µM] | TGI (LOX IMVI melanoma) [µM] | TGI (M14 melanoma) [µM] | TGI (K-562 leukemia) [µM] | TGI (NCI-H522 lung) [µM] | TGI (EKVX NSCLC) [µM] | TGI (HCT-116 colon) [µM] | TGI (MDA-MB-435) [µM] | TGI (U251 CNS) [µM] | TGI (HOP-92 NSCLC) [µM] | TGI (KM12 colon) [µM] | TGI (ACHN renal) [µM] | TGI (RPMI-8226 leukemia) [µM] | TGI (SNB-19 CNS) [µM] | TGI (OVCAR-4 ovarian) [µM]
1 | COc1cc(/C=N/NC(=O)c2c(Cl)c(Cl)c(Cl)c(Cl)c2-c2nc3ccc(C(=O)c4ccccc4)cc3[nH]2)ccc1O | 54.4 | > 100 | > 100 | > 100 | > 100 | > 100 | > 100 | > 100 | > 100 | > 100 | > 100 | > 100 | 89.5 | > 100 | > 100
2 | CCOC(=O)c1c(CN2CCNCC2)nc2ccc(Cl)cc2c1-c1ccccc1 | 4.51 | 3.26 | 3.85 | 7.03 | 9.41 | 23.4 | 10.2 | 8.21 | 26.7 | 3.16 | 7.18 | 12.9 | 4.89 | 28.4 | 12.3
3 | N#Cc1ccc(C2ON=C(c3ccccc3)N2C23CC4CC(CC(C4)C2)C3)cc1 (stereo not given) | > 10 | > 10 | > 10 | > 10 | > 10 | > 10 | > 10 | > 10 | > 10 | > 10 | > 10 | > 10 | > 10 | > 10 | > 10
4 | N#CC(O)CCOCc1ccccc1 (stereo not given) | > 100 | > 100 | > 100 | > 100 | 51.4 | > 100 | > 100 | > 100 | > 100 | > 100 | > 100 | > 100 | > 100 | > 100 | > 100
5 | CC(C)C1=Cc2ccc3c(c2C(=O)C1=O)CCCC3 | 2.77 | 25.6 | 11.1 | 14.1 | 18.1 | 19.2 | 5.39 | 21.4 | 42.4 | 2.27 | 32.4 | 7.13 | 6.6 | 37.5 | 3.16
6 | CCCCCCCCCCC/C=C(/C(=O)CCCO[Si](C)(C)C(C)(C)C)C(=O)OC | > 100 | > 100 | > 100 | > 100 | > 100 | > 100 | > 100 | > 100 | > 100 | > 100 | > 100 | > 100 | > 100 | > 100 | > 100
7 | C[C@]12CC[C@H]3[C@@H](CC=C4C[C@@H](O)CC[C@@]43C)[C@@H]1C/C(=C\c1ccncc1)[C@@H]2O | 57.3 | 61 | 40.6 | > 100 | 57.7 | 49.1 | 51.4 | 47.9 | 33.9 | 27.6 | 31.2 | 50.5 | 48.9 | 62.1 | 39.5
8 | N#Cc1c(-c2ccc([N+](=O)[O-])cc2)c2c([nH]c1=O)-c1ccccc1CCC2 | > 100 | > 100 | > 100 | > 100 | > 100 | > 100 | > 100 | > 100 | > 100 | 48.4 | > 100 | > 100 | > 100 | > 100 | > 100
9 | O=C(/C=C/c1ccc([N+](=O)[O-])cc1)N1CCN(CCOC(c2ccc(F)cc2)c2ccc(F)cc2)CC1 | 40.5 | > 100 | > 100 | > 100 | > 100 | > 100 | > 100 | > 100 | > 100 | 83.8 | > 100 | > 100 | 36.9 | > 100 | > 100
10 | COCN1C(=O)[C@@H]2C[C@@H](O)CN2C(=O)c2ccccc21 | > 100 | > 100 | > 100 | > 100 | > 100 | > 100 | > 100 | > 100 | > 100 | > 100 | > 100 | > 100 | > 100 | > 100 | > 100
11 | O=C(O)CCC(NC(=O)c1ccc(Oc2nc3ccccc3nc2C(=O)O)cc1)C(=O)O (stereo not given) | > 100 | > 100 | > 100 | > 100 | > 100 | > 100 | > 100 | > 100 | > 100 | > 100 | > 100 | > 100 | > 100 | > 100 | > 100
12 | FC(F)(F)c1ccc2c(-c3cc[nH]c3)ccnc2c1 | 84.9 | 48.9 | > 100 | > 100 | 94.9 | > 100 | > 100 | > 100 | > 100 | > 100 | > 100 | > 100 | 95.2 | 58.8 | > 100
13 | O=C1c2ccccc2CC12Cc1cc3c(cc1C2)CCC3 | 57.5 | > 100 | 94.1 | > 100 | > 100 | > 100 | > 100 | > 100 | > 100 | > 100 | 93.9 | > 100 | > 100 | > 100 | > 100
14 | CCOC(=O)C1=C(C(=O)OCC)SC2(S1)C(C(=O)OCC)=C(C(=O)OCC)Sc1c2ssc1=O | > 100 | 1.42 | 4.94 | 3.06 | 4.46 | 5.78 | 2.3 | 3.93 | 3.95 | 2.81 | 10.3 | 3.11 | 4.56 | 15.4 | 2.68

— PubChem BioAssay (NCI)
